Broadly, the IC50 is the concentration that inhibits the measured activity by half.

The values below come from patent US20230227405A1, “5-OXOPYRROLIDINE-3-CARBOXAMIDES AS NAV1.8 INHIBITORS” (MERCK SHARP & DOHME CORP., priority 2020, published 2023).

In this assay the target is T1, human Nav1.8 (Homo sapiens, UniProt Q9Y5Y9).
T1 construct: expressed in transfected cells
T1 sequence (Q9Y5Y9 whole entry): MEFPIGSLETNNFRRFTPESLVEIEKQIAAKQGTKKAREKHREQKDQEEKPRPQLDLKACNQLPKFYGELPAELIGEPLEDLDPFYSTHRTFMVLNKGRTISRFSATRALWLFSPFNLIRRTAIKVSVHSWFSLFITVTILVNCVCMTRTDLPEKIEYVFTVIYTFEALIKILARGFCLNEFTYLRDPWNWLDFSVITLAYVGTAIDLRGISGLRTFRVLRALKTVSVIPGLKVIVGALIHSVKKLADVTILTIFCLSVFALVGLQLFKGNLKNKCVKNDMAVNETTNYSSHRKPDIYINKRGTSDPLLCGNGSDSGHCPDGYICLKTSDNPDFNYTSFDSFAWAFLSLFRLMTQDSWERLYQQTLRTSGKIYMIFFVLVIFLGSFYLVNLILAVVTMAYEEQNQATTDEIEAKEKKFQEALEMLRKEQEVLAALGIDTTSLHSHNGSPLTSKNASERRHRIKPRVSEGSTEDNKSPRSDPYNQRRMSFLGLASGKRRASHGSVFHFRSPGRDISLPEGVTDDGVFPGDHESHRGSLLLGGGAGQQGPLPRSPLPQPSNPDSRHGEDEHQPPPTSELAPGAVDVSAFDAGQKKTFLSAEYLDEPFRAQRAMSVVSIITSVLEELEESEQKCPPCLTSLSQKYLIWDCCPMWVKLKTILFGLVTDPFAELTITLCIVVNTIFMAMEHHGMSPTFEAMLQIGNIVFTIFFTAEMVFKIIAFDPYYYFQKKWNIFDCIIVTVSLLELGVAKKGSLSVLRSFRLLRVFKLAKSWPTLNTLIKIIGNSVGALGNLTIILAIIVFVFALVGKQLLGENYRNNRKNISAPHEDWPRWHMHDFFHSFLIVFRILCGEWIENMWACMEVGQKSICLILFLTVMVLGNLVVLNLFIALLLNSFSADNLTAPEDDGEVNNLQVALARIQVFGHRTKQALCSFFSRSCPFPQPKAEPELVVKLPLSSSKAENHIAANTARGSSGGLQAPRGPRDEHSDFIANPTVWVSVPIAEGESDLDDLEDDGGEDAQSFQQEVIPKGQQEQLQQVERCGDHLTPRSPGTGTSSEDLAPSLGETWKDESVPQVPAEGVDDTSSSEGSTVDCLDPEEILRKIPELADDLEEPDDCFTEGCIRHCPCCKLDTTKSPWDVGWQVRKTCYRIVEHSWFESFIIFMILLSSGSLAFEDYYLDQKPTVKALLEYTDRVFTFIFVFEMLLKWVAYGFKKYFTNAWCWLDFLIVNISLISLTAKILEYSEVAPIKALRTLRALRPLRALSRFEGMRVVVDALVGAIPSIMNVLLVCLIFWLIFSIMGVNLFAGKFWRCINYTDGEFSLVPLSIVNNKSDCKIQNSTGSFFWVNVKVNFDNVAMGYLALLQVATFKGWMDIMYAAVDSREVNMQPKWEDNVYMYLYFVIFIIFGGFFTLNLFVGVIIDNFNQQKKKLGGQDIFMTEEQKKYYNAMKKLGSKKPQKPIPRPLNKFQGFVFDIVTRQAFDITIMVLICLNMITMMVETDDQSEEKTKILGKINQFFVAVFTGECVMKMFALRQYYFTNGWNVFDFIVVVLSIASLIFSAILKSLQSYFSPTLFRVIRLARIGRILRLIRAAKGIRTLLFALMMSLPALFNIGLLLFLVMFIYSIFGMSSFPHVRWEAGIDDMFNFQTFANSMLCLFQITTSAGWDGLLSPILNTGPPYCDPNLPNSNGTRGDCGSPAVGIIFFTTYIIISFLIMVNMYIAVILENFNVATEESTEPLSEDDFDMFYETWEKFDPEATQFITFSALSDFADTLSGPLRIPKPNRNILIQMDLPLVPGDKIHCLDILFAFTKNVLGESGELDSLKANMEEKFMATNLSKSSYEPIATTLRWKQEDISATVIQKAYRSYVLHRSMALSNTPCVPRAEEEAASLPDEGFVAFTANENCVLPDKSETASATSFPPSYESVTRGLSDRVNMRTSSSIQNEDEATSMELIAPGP
Description: Qube® automated patch-clamp assay, Nav1.8. Type of assay: cell-based. The settings on record: human Nav1.8 stably expressed in HEK 293 cells; whole-cell voltage clamp, room temperature; read-out: IC50 values (nM) for Examples in the Nav1.8 Qube® Assay. The protocol: Compounds were tested on human Nav1.8 and Nav1.5 channels stably expressed in human embryo kidney (HEK) 293 cells. Sodium current measurements on Qube® were conducted as follows: automated 384-well patch-clamp assays on the Qube® platform (Sophion Biosciences) were used to measure the inhibition of sodium flow through human Nav1.8 and Nav1.5 channels. Whole-cell voltage-clamp recordings were performed in QChips® (Sophion Biosciences) at room temperature. Nav1.8 current measurements on Qube® were obtained as follows: Nav1.8 currents were elicited with a 10 second 1 Hertz (Hz) pulse train from a holding potential of −90 millivolts (mV), delivered to the cells once per minute in the control condition (DMSO only) and after compound addition. The 1 hertz pulse train stimulation consisted of ten test pulses to 10 millivolt (mV) for 20 milliseconds (ms), each of which was followed by a 980 millisecond repolarization to −67 millivolts. At the end of the 10 second pulse train stimulation, a 5 second hyperpolarization step to −100 millivolt (mV) was used to recover Nav1.8 from fast inactivation. The peak currents elicited by the 1st and 10th test pulses were used to determine IC50 values for resting inhibition and inactivated state inhibition. Nav1.5 current measurements on Qube® were obtained as follows: Nav1.5 currents were elicited with a 20 second 3 Hertz pulse train in the control condition (DMSO only) and after compound addition. The pulse train consisted of sixty 20 millisecond test pulses to 0 millivolt from a holding potential of −80 millivolt (mV). The average peak currents elicited by the last 3 test pulses were used to determine IC50 values for Nav1.5 inhibition.
The following buffers were used for the Qube® recordings: External buffer for Nav1.8 Qube® recording: 150 NaCl, 2 CaCl2, 5 KCl, 1 Mg Cl2, 10 HEPES, 12 Dextrose; External buffer for Qube® Nav1.5 recording: 120 N-Methyl-D-Glucamine, 40 NaCl, 1 KCl, 2.7 CaCl2, 5 HEPES, 0.5 MgCl2; and Internal buffer for Qube® recording: 120 CsF, 30 CsCl, 10 EGTA, 5 HEPES, 5 NaF, 2 MgCl2.
For all Qube® experiments offline analysis was used to determine percent inhibition as a function of drug concentration. IC50 values were determined by fitting to the Hill equation.
Background: In patch-clamp work, channel activity is measured electrically.
For the compound `COc1cc(Cl)ccc1C(NC(=O)[C@@H]1CNC(=O)C1)c1ccc(Cl)cc1` (stereo partly drawn) [Example 5, (3S)-N-((4-chloro-2-methoxyphenyl)(4-chlorophenyl)methyl)-5-oxopyrrolidine-3-carboxamide], the IC50 is 11 nM.

As to `O=C1C[C@H](C(=O)NC(c2cccc(Cl)c2)c2cccc(OC(F)F)c2)CN1` (stereo partly drawn) [Example 6, (3S)-N-((3-chlorophenyl)(3-(difluoromethoxy)phenyl)methyl)-5-oxopyrrolidine-3-carboxamide], the IC50 was 520 nM.

As for `O=C1C[C@H](C(=O)NC(c2ccc(Cl)cc2)c2cc(F)cc(C(F)(F)F)c2)CN1` (stereo partly drawn) [Example 7, (3S)-N-((4-chlorophenyl)(3-fluoro-5-(trifluoromethyl)phenyl)methyl)-5-oxopyrrolidine-3-carboxamide], the IC50 stood at 186 nM.

Turning to `O=C1C[C@H](C(=O)NC(c2ccc(C(F)(F)F)cc2)c2cccc(C(F)(F)F)c2)CN1` (stereo partly drawn) [Example 8, (3S)-5-oxo-N-((3-(trifluoromethyl)phenyl)(4-(trifluoromethyl)phenyl)methyl)pyrrolidine-3-carboxamide], the IC50 was found to be 19 nM.

As for `O=C1C[C@H](C(=O)NC(c2ccc(C(F)(F)F)cc2)c2ccc(C(F)(F)F)cc2)CN1` [Example 9, (S)-N-(bis(4-(trifluoromethyl)phenyl)methyl)-5-oxopyrrolidine-3-carboxamide], the IC50 came out at 28 nM.

`O=C1C[C@H](C(=O)NC(c2ccc(Cl)cc2)c2cccc(OC(F)(F)F)c2)CN1` (stereo partly drawn) [Example 10, (3S)-N-((4-chlorophenyl)(3-(trifluoromethoxy)phenyl)methyl)-5-oxopyrrolidine-3-carboxamide]: the 50% inhibitory concentration (IC50) is 52 nM.

For `O=C1C[C@H](C(=O)NC(c2ccc(F)c(Cl)c2)c2ccc(F)c(Cl)c2)CN1` [Example 18, (S)-N-(bis(3-chloro-4-fluorophenyl)methyl)-5-oxopyrrolidine-3-carboxamide], the IC50 was 5.3 nM.

As for `N#Cc1cc(C(NC(=O)[C@@H]2CNC(=O)C2)c2ccc(F)c(Cl)c2)ccc1F` (stereo partly drawn) [Example 22, (3S)—N-((3-chloro-4-fluorophenyl)(3-cyano-4-fluorophenyl)methyl)-5-oxopyrrolidine-3-carboxamide], the IC50 amounted to 32 nM.

As to `O=C1C[C@H](C(=O)NC(c2ccc(F)c(C(F)(F)F)c2)c2csc(C(F)(F)F)n2)CN1` (stereo partly drawn) [Example 23, (3S)-N-((4-fluoro-3-(trifluoromethyl)phenyl)(2-(trifluoromethyl)thiazol-4-yl)methyl)-5-oxopyrrolidine-3-carboxamide], the IC50 was 92 nM.

As for `O=C1C[C@H](C(=O)NC(c2ccc(F)c(C(F)(F)F)c2)c2ccc(F)c(Cl)c2F)CN1` (stereo partly drawn) [Example 24, (3S)-N-((3-chloro-2,4-difluorophenyl)(4-fluoro-3-(trifluoromethyl)phenyl)methyl)-5-oxopyrrolidine-3-carboxamide], the IC50 is 5.5 nM.

Take `O=C1C[C@H](C(=O)NC(COc2ccccc2)c2ccc(F)c(C(F)(F)F)c2)CN1` (stereo partly drawn) [Example 25, (3S)-N-(1-(4-fluoro-3-(trifluoromethyl)phenyl)-2-phenoxyethyl)-5-oxopyrrolidine-3-carboxamide]: the concentration for half-maximal inhibition (IC50) came to 53 nM.

Consider `O=C1C[C@H](C(=O)NC(CCc2ccccc2)c2cccc(Cl)c2)CN1` (stereo partly drawn) [Example 26, (3S)-N-(1-(3-chlorophenyl)-3-phenylpropyl)-5-oxopyrrolidine-3-carboxamideNa], for which the IC50 amounted to 435 nM.
